Patent US8030489B2, “Ornithine derivative” (Astellas Pharma Inc., priority 2007, dated 2011)
In brackets after ≈: the same amount, converted by molar mass.

Assays:
rat EP4 receptor = target: T1, rat EP4 receptor (Rattus norvegicus, UniProt P43114); assay: Evaluation test on rat EP4 receptor affinity ([3H]PGE2 binding assay); conditions: rat EP4 expressed in HEK293 membrane fraction, [3H]PGE2 0.3 nM
T1 construct: expressed in transfected cells; host or cells: HEK293
Procedure: Test Example 1: Evaluation Test on Rat EP4 Receptor Affinity
Cell Culture and Transfection
Using a 10 cm collagen-coated dish (Asahi Glass), HEK293 cells were cultured in a D-MEM culture medium, washed with a phosphate buffer saline (PBS), the culture medium was removed off at a confluence (90 to 100% density state), and then the cells were detached with N,N,N′,N′-tetrakis(carboxymethyl)ethylenediamine (EDTA). The cells were counted and seeded on a 15 cm collagen-coated dish to a confluence of 70%. The next day, to an Opti-MEM culture medium at 1.2 mL/dish was added Lipofectamine 2000 (Invitrogen) at 60 μL/dish, followed by being left to stand at room temperature for 5 minutes. A plasmid in which a rat EP4 (alignment number 1) had been inserted into a TA cloning site of pcDNA3.1-V5-His-topo was added thereto to 15 μg/dish. After leaving it to stand at room temperature for 30 minutes, the resultant was added to the dish, and cultured for 20 to 24 hours. The cell culture was carried out in a CO2 incubator (37° C., 5% CO2).
Preparation of Membrane Fraction
The culture medium was removed by suction, 10 mL of cooled PBS was added thereto per 15 cm dish, and the cells were scraped using a cell scraper (Sumitomo Bakelite). They were washed with cooled PBS (1,200 rpm, 4° C., 5 min), and then suspended in 6 mL of cooled 20 mM Tris-HCl (pH 7.4; Nakalai Tesque Inc., including 5 mM EDTA (Nakalai Tesque Inc.) per dish. Then, it was homogenized using a Polytron and the homogenate was centrifuged (26,000 rpm, 20 min, 4° C.). The obtained precipitate was resuspended in cooled 20 mM Tris-HCl, and homogenized again using a Polytron, and the homogenate was centrifuged (26,000 rpm, 20 min, 4° C.). The obtained precipitate was resuspended in 50 mM HEPES (pH 7.5; Dojindo Laboratories) to 1 mL per dish, homogenized again using a Polytron, and freeze-stored at −80° C. as a membrane fraction. At this time, a part thereof was used for the measurement of the protein concentration. Measurement of the protein concentration was carried out using a Bio-Rad Protein assay kit (Bio-Rad Laboratories) in accordance with the appended standard Protocol in duplicate.
[^3H] PGE2 50 μL (final concentration 0.3 nM; Perkin Elmer), 100 μL (20 μg/well) of a membrane fraction prepared from the rat EP4 expression cell, and 50 μL of a test compound were mixed in a 96-well microplate (Sumitomo Bakelite), incubated at room temperature for 1 hour, then filtered by suction on a UniFilter-96 GF/B (Perkin Elmer) using a FilterMate Harvester (Perkin Elmer), and washed three times with 300 μL/well of a cooled assay buffer. Dilution of [^3H]PGE2 and the membrane fraction was carried out using an assay buffer (50 mM HEPES, 10 mM MgCl2), and dilution of the test compound and the unlabeled PGE2 was carried out using DMSO and an assay buffer. Further, in the case of the addition of a human serum albumin (HSA), dilution was carried out using an assay buffer containing 4% HSA (final concentration 1%; Sigma). The UniFilter-96 GF/B was treated by preliminarily washing twice with 200 μL/well of a cooled assay buffer. The UniFilter-96 GF/B after filtration was dried in a dryer overnight, 50 μL/well of MicroScint20 (Perkin Elmer) was added thereto, and then the radioactivity was measured using a TopCount (Perkin Elmer). For measurement of the non-specific binding, an unlabeled PGE2 (final concentration 1 μM; Cayman) was added. All of the measurements were carried out in duplicate, and the specific binding amount was determined by subtracting the non-specific binding amount from the total binding amount.
According to Test Example 1 as above, the rat EP4 receptor affinity (Ki) of the compound of the formula (I) was measured.

Solubility test = format: physicochemical; conditions: pH 1.2, simulated gastric fluid, kinetic from dmso stock; first liquid for disintegration test of Japanese Pharmacopoeia, 25° C., shaking 20 hours
Procedure: Test Example 3: Solubility Test
To 13 μL of a 10 mM DMSO solution of a test material that had been prepared in advance was added exactly 1 mL of a first liquid for a disintegration test of Japanese Pharmacopoeia, followed by shaking at 25° C. for 20 hours, thereby giving a sample stock solution. Next, using a filter impregnated with 200 μL of the sample stock solution, 200 μL of a fresh sample stock solution was added for filtration to obtain a liquid, which was taken as a sample solution. Apart from this, to 10 μL of the 10 mM DMSO solution of the test material was added accurately 1 mL of methanol, followed by stirring, thereby giving a standard solution. 10 μL of the sample solution and the standard solution were tested by liquid chromatography, respectively, and the ratio of the peak area of the sample solution to the peak area of the standard solution was determined, thereby calculating the solubility. For example, the solubilities of the compounds of Examples 23, 25, 31, 32, 50, 55, 57, 60, 93, and 284 were 51 μg/mL, 26 μg/mL, ≧53 μg/mL, 46 μg/mL, 47 μg/mL, ≧52 μg/mL, ≧50 μg/mL, 40 μg/mL, ≧53 μg/mL, and <1 μg/mL, respectively.

[1] = system: urinary albumin excretion (UAE) in STZ diabetic rats; assay: Effect on urine albumin in streptozotocin-induced (STZ) diabetic rats; format: in vivo, rat; conditions: male Wistar rats, STZ 50 mg/kg i.v.; 30 mg/kg oral, fourth week of administration; vehicle group 3.1±0.7 mg/day
Procedure: Test Example 2: Test to Study the Effect on Urine Albumin in Streptozotocin-induced (STZ) Diabetic Rats.
Eight-week old male Wistar (Crj) rats were divided into groups with unbiased urinary albumin excretion (UAE), and STZ (50 mg/kg) was intravenously administered thereto. From the next day of administration of STZ, the drug was continuously orally administered, and urine was periodically collected in a metabolism cage for 24 hours to measure the UAE.

T1 sequence (P43114 whole entry): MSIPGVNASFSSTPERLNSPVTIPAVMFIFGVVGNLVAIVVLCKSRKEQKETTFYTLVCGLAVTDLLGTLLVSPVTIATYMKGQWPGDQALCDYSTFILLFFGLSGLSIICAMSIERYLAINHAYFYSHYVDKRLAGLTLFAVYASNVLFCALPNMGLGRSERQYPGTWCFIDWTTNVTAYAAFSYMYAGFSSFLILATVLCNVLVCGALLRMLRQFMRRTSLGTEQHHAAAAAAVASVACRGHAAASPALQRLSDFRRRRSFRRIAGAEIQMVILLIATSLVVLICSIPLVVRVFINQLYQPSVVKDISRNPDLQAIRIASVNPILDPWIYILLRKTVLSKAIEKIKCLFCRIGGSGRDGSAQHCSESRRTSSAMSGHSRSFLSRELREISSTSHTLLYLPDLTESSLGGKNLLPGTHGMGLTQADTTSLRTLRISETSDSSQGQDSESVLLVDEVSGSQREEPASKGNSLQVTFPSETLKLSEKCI

Row | SMILES | Ki (rat EP4 receptor) [nM] | solubility at 20 h (Solubility test) [µg/mL] | urinary albumin excretion (UAE) [1] [mg/day]
1 | COc1cccc(C(=O)N[C@@H](CCCNC(=O)OCc2ccccc2)C(=O)N[C@H]2CCC[C@H]2C(=O)O)c1 [Example 26] | 1.6 | – | –
2 | Cn1c(C(=O)N[C@@H](CCCNC(=O)OCc2ccccc2)C(=O)N[C@H]2CCC[C@H]2C(=O)O)cc2ccccc21 [Example 2, (1R,2S)-2-({N^5-[(benzyloxy)carbonyl]-N^2-[(1-methyl-1H-indol-2-yl)carbonyl]-L-ornithyl}amino)cyclopentanecarboxylic acid] | 0.92 | – | –
3 | Cn1ccc2c(C(=O)N[C@@H](CCCNC(=O)OCc3ccccc3)C(=O)N[C@H]3CCC[C@H]3C(=O)O)cccc21 [Example 50] | 0.78 | 47 (≈ 87.9 µM) | –
4 | CN(C)c1cccc(C(=O)N[C@@H](CCCNC(=O)OCc2ccccc2)C(=O)N[C@H]2CCC[C@H]2C(=O)O)c1 [Example 31] | 1.1 | ≥ 53 | –
5 | Cc1cc(C)n(C)c1C(=O)N[C@@H](CCCNC(=O)OCc1ccccc1)C(=O)N[C@H]1CCC[C@H]1C(=O)O [Example 36] | 9.8 | – | –
6 | CC(C)COC(=O)NCCC[C@H](NC(=O)c1cc2ccccc2n1C)C(=O)N[C@H]1CCC[C@H]1C(=O)O [Example 159] | 6 | – | –
7 | O=C(/C=C/c1ccccc1O)N[C@@H](CCCNC(=O)OCc1ccccc1)C(=O)N[C@H]1CCC[C@H]1C(=O)O [Example 55] | 0.92 | ≥ 52 | –
8 | Cn1c(C(=O)N[C@@H](CCCNC(=O)OCc2ccccc2)C(=O)N[C@H]2CCC[C@H]2c2n[nH]c(=S)o2)cc2ccccc21 [Example 119] | 2.1 | – | –
9 | Cn1c(C(=O)N[C@@H](CCCNC(=O)OCc2ccccc2)C(=O)N[C@H]2CCC[C@H]2C(=O)NS(=O)(=O)CCCO)cc2ccccc21 [Example 176] | 4 | – | –
10 | Cc1cc(C(=O)N[C@@H](CCCNC(=O)OCc2ccccc2)C(=O)N[C@H]2CCC[C@H]2C(=O)O)n(C)c1 [Example 57] | 0.72 | ≥ 50 | –
11 | Cn1c([C@@H]2CCC[C@@H]2NC(=O)[C@H](CCCNC(=O)OCc2ccccc2)NC(=O)c2cc3ccccc3n2C)n[nH]c1=S [Example 120] | 9.8 | – | –
12 | O=C(NCCC[C@H](NC(=O)c1cccc(Cl)n1)C(=O)N[C@H]1CCC[C@H]1C(=O)O)OCc1ccccc1 [Example 76] | 1.8 | – | –
13 | Cn1ccc2ccc(C(=O)N[C@@H](CCCNC(=O)OCc3ccccc3)C(=O)N[C@H]3CCC[C@H]3C(=O)O)cc21 [Example 25] | 0.66 | 26 (≈ 48.6 µM) | –
14 | O=C(NCCC[C@H](NC(=O)c1cccc(Cl)c1)C(=O)N[C@H]1CCC[C@H]1C(=O)O)OCc1ccccc1 [Example 32] | 1.3 | 46 (≈ 89.1 µM) | –
15 | CC(=O)c1cn(C)c2cc(C(=O)N[C@@H](CCCNC(=O)OCc3ccccc3)C(=O)N[C@H]3CCC[C@H]3C(=O)O)ccc12 [Example 60] | 1.1 | 40 (≈ 69.4 µM) | –
16 | Cn1ccc2cccc(C(=O)N[C@@H](CCCNC(=O)OCc3ccccc3)C(=O)N[C@H]3CCC[C@H]3C(=O)O)c21 [Example 93] | 0.79 | ≥ 53 | –

Stronger by Ki (rat EP4 receptor), values ahead:

Row | Ki (rat EP4 receptor) [nM] | solubility at 20 h (Solubility test) [µg/mL] | SMILES | urinary albumin excretion (UAE) [1] [mg/day]
17 | 0.53 | – | Cn1c(C(=O)N[C@@H](CCCNC(=O)OCc2ccccc2)C(=O)N[C@H]2CCCC[C@H]2C(=O)O)cc2ccccc21 [Example 22] | –
18 | 0.52 | – | Cn1c(C(=O)N[C@@H](CCCNC(=O)OCc2ccccc2)C(=O)N[C@H]2CCC[C@H]2c2nnn[nH]2)cc2ccccc21 [Example 83] | –
19 | 0.43 | – | Cn1c(C(=O)N[C@@H](CCCNC(=O)OCC2CCCCC2)C(=O)N[C@H]2CCC[C@H]2C(=O)O)cc2ccccc21 [Example 160] | –
20 | 0.43 | 51 (≈ 95.8 µM) | O=C(NCCC[C@H](NC(=O)c1ccc2ccccc2n1)C(=O)N[C@H]1CCC[C@H]1C(=O)O)OCc1ccccc1 [Example 23] | 0.9 ± 0.1
21 | 0.29 | – | COc1ccc2[nH]c(C(=O)N[C@@H](CCCNC(=O)OCc3ccccc3)C(=O)N[C@H]3CCC[C@H]3c3nnn[nH]3)cc2c1 [Example 164] | –
22 | 0.29 | – | COc1ccc2c(c1)cc(C(=O)N[C@@H](CCCNC(=O)OCc1ccccc1)C(=O)N[C@H]1CCC[C@H]1c1nnn[nH]1)n2C [Example 169] | –
23 | 0.26 | – | COc1ccc2[nH]c(C(=O)N[C@@H](CCCNC(=O)OCc3ccccc3)C(=O)N[C@H]3CCC[C@H]3C(=O)O)cc2c1 [Example 165] | –
